Tests used:
HepG2 cells [1] = conditions: 5 μM FCCP 30 min, then 50 μM toxin 45 min; in comparison to MN9D cells
Procedure: (§1) Cells grown in 12-well plates were washed and incubated with 5 μM FCCP in KRB-HEPES for 30 min followed by 50 μM MPP^+ or 4'I-MPP^+ in the same buffer for 45 min at 37 °C. After the incubations, cells were washed with ice-cold KRB-HEPES and treated with 0.1 M HClO4. The intracellular MPP^+ or 4'I-MPP^+ contents of HClO4 extracts were quantified by HPLC-UV as detailed above. The controls were treated under the same conditions except that FCCP was omitted from the initial incubation. All uptake data were normalized to the respective protein concentration of each sample. To visualize the effect of FCCP on the mitochondrial accumulation of 4'I-MPP^+, cells were grown in glass bottomed plates and incubated with 5 μM FCCP in KRB-HEPES for 30 min followed by 100 μM 4'I-MPP^+ for 1 h at 37 °C. Then cells were washed and reconstituted with 1 mL of KRB-HEPES and the intracellular 4'I-MPP^+ fluorescence (Ex/Em 340/470-550 nm) were recorded.

MN9D cells [2] = conditions: 5 μM FCCP 30 min, then 50 μM toxin 45 min
Procedure: as §1

[3] = system: isolated intact MN9D mitochondria; assay: Effects of Ca2+ and inhibitors on MN9D mitochondrial uptake of 4'I-MPP+; set-up: species or system mouse; conditions: for 4'I-MPP+ uptake inhibition: 200 μM 4'I-MPP+
Procedure: Intact MN9D cell mitochondria were incubated with 200 μM 4'I-MPP^+ for 45 min at 37 °C in 0, 500 or 1000 nM Ca^2+ containing KCl buffer. When mNCX inhibitors (KBR7943, 2APB and CGP37157) were used, mitochondrial suspensions were initially incubated with 10, 25 or 50 μM inhibitor in KCl buffer for 10 min at 37 °C and then with 200 μM 4'I- MPP^+ for 45 min at 37 °C. After the incubations, samples were centrifuged at 7,000 x g at 4 °C for 10 min and the mitochondrial pellets were treated with 75 μL of 0.1 M HClO4. […] To visualize the effect of CGP37157 on the mitochondrial uptake of 4'I-MPP^+ in live cells, HepG2 cells grown in glass-bottomed plates were incubated with 50 μM CGP37157 for 30 min initially and then with 100 μM 4'I-MPP^+ and 200 nM MitoTracker Green FM in KRB-HEPES for 1 h at 37 °C. After incubation cells were washed and reconstituted with KRB-HEPES, pH 7.4 and 4'I-MPP^+ and MitoTracker Green FM fluorescence images of cells were recorded as detailed above. Controls were treated under the same experimental conditions, except that CGP37157 was omitted from the initial incubation.
S4 Fig. Effects of Benzamil, Verapamil, FFA, and ruthenium red on the MN9D mitochondrial uptake of 4'I-MPP+. MN9D mitochondrial suspensions were initially incubated with a 50 μM concentration of the desired agent (10 μM Ruthenium red) in KCl buffer for 10 min at 37 °C and then incubated with 200 μM 4'I-MPP+ for 45 min at 37 °C. After the incubations, the […] 4'I-MPP+ contents were quantified by RP-HPLC-UV as described in Material and methods. The data are represented as mean ± S.D (n=3).
(also on this page, place not known: contol 10uM Ru red BenzamilVerapamil FFA 4I' MPP+ uptake (nmoles/mg) 0.0 0.1 0.2 0.3 0.4 0.5)
(1 picture or pasted object on this page, not shown here)

HepG2 cells [4] = assay: Effect of CGP37157 and KBR7943 on 4'I-MPP+-mediated mitochondrial membrane depolarization (TMRM); assay type: cell-based, human
Procedure: HepG2 cells grown in glass-bottomed plates for two days were treated with 50 μM CGP37157 or KBR7943 in KRB-HEPES for 30 min followed by 50 nM TMRM in KRB-HEPES for 45 min. Then plates were mounted on the stage of the microscope and mitochondrial membrane depolarization upon the treatment with 100 μM 4'I-MPP^+ was measured as a function of time as detailed above. The effect of CGP37157 on the 4'I-MPP^+ mediated mitochondrial membrane depolarization at longer time periods was monitored by observing the reduction of TMRM fluorescence from 0 to 4 h incubations in the presence or absence of CGP37157. HepG2 cells were incubated with or without 10 μM CGP37157 followed by 50 nM TMRM, and finally with 4'I-MPP^+ (100 μM, 0 or 4 h) and the intracellular TMRM fluorescence was recorded. Controls were carried out using an identical protocol except that either CGP37157 or 4'I-MPP^+ were omitted from the incubation media.

MN9D cells [5] = assay: Protection of MN9D cells from MPP+ and 4'I-MPP+ toxicities (MTT); assay type: cell-based, mouse; conditions: 0–50 μM CGP37157 30 min, then 80 μM MPP+ or 25 μM 4'I-MPP+ for 8 h
Procedure: Cell viability was determined by the MTT [3-(4,5-dimethylthiazol-2-yl)-2,5-diphenyltetrazolium bromide)] assay. Briefly, cells were seeded on 96-well plates and allowed to grow to about 70–80% confluence. Prior to the experiment, culture media was replaced with KRB-HCO3^- containing desired concentrations of MPP^+ or 4'I-MPP^+ and incubated for 16 h at 37 °C. After the incubation, 10 μL of 5 mg/mL MTT solution was added to each well and incubated for 2 h at 37 °C. The resulting formazan was solubilized by the addition of 210 μL detergent solution [50% DMF/H2O (v/v), 20% SDS (w/v)] followed by incubation at 37 °C for 12 h. The cell viabilities were determined by quantifying solubilized formazan by measuring the difference in the absorbance at 570 nm and 650 nm. Results were expressed as % viability of MPP^+ or 4'I-MPP^+ treated cells with respect to control cells, which were treated under the same conditions except in the absence of the MPP^+ or 4'I-MPP^+.
Fig 7 CGP37157 protect MN9D cells from MPP^+ and 4'I-MPP^+ toxicities. Cells were pre-incubated with 0–50 μM CGP37157 for 30 min followed by 80 μM MPP^+ or 25 μM 4'I-MPP^+ for 8 h. The relative cell viabilities were determiner using MTT assay, as detailed above. Data are presented as mean ± SD (n = 6). ٭p<0.0001 and #p<0.005 versus no CGP37157 controls.

Row | SMILES | effect on cellular accumulation of MPP+ and 4'I-MPP+ (HepG2 cells [1]) | effect on cellular accumulation of MPP+ and 4'I-MPP+ (MN9D cells [2]) | 4'I-MPP+ uptake inhibition ([3]; 10 μM inhibitor) | 4'I-MPP+ uptake inhibition ([3]; 25 μM inhibitor) | effect on uptake of 4'I-MPP+ ([3]; 50 μM inhibitor at 200 μM 4'I-MPP+) | effect on 4'I-MPP+-induced mitochondrial membrane depolarization, longer incubation (HepG2 cells [4]; 10 μM CGP37157, 100 μM 4'I-MPP+, lasting at least 4 h) | effect on 4'I-MPP+ mitochondrial membrane depolarization (HepG2 cells [4]; 50 μM pre-treatment 30 min, 100 μM 4'I-MPP+) | protection from MPP+ and 4'I-MPP+ toxicities (MN9D cells [5])
1 | N#CC(C#N)=NNc1ccc(OC(F)(F)F)cc1 [FCCP, carbonyl cyanide-p-trifluoromethoxyphenylhydrazone] | stronger effect | significantly decreased |  |  |  |  |  | 
2 | O=C1CSC(c2ccccc2Cl)c2cc(Cl)ccc2N1 (centres unmarked) [CGP37157] |  |  | about 40% | ~ 45% | inhibit the uptake | slows down | significantly reduced | effectively protects
